In patent US20240325394A1, “SALT AND CRYSTAL FORM OF NITROGEN-CONTAINING HETEROCYCLIC DERIVATIVE, PREPARATION METHOD THEREFOR AND APPLICATION THEREOF” (SHANGHAI HANSOH BIOMEDICAL CO., LTD., priority 2020, published 2024):
Like-named read-outs stand apart in the source and are kept apart here. Blank lines part the entries; values can stand above or below the molecule they belong to.

Columns and labels:
[1] = Plasma stability, rat plasma; assay type: in vitro ADME
Procedure: (§1) Animal or human whole blood was collected, then the blood was put into a test tube containing anticoagulant, centrifuged at 3500 rpm for 10 min, and the upper layer of pale yellow plasma was collected. • 2) 10 μM of tested compound (m/M/V=C)
(§2) The compound was weighed, the stock solution was prepared with DMSO and the working solution was prepared with 100 mM phosphate buffer. • 3) 10 μM of positive control • (1) Propantheline (Propantheline Mr=449.4 Da)
(§3) • 1) 285 μL of plasma and 15 μL of 10 μM compound (tested compound) were added in turn in a 96-well plate, and incubated at 37° C. • 2) 40 μL was taken out at 0, 15, 30, 60, 90, 120 min, respectively, and 160 μL of acetonitrile termination solution containing internal standard was added. • 3) After centrifugation (3500 rpm, 10 min), 50 μL of supernatant was taken out, and then diluted with 50 μL DDH2O and injected to LC-MS/MS.
(§4) • instrument: Shimadzu LC-20 AD • chromatographic column: phenomenex Gemiu® C18 (50*4.6 mm, 5 μM particle size); • mobile phase: A: acetonitrile, B: 0.1% formic acid solution 0-8 min: 5% A→95% A, 2.0-2.1 min: 90% A→5% A; flow rate: 0.8 mL/min; running time: 5.0 min; injection volume: 5 μL.
(§5) • instrument: API4000 Liquid Chromatography-Mass Spectrometry, AB, USA; • the ion source was electrospray ionization source (ESI); • the temperature of dry gas (N2) was 500° C.; • electrospray voltage was 5500V; • the detection method was positive ion detection; • the scanning mode was selective response monitoring (MRM); • the scanning time was 0.1 s.

[2] = Pharmacokinetics in MiaPaca 2 tumor-bearing mice (plasma, tumor tissue); assay type: in vivo; conditions: female, mouse, po, p.o. 6 mg/kg
Procedure: The pharmacokinetic behavior of the compound of the embodiment 13-1 and AMG-510 compound, administered orally at a dose of 6 mg/kg, in mice (plasma, tumor tissue and intestine) was studied using MiaPaca 2 tumor-bearing mice as test animals.
24 MiaPaca 2 tumor-bearing mice, females. 3 for each time point (0 h, 1 h, 2 h, 4 h, 6 h, 8 h, 16 h, 24 h). Shanghai xipuer-bikai Laboratory Animal Co., Ltd, Animal Production License No. (SCXK (Shanghai) 2018-0006.
Embodiment compound 13-1 and compound AMG-510 were weighed and dissolved in the solution, the mixture was shaken well, and ultrasound was performed for 15 minutes to obtain a uniform suspension with a concentration of 0.6 mg/mL.
MiaPaca 2 tumor-bearing mice were administered at a dose of 6 mg/kg in a volume of 10 mL/kg, respectively, based on body weight p.o. after fasting (animals were not administered at point 0 h).
Before and after administration, mice were sacrificed with CO2, 0.5 mL blood was collected from the heart and placed in EDTA-2K tube, centrifuged at 4° C. […] The duodenum, ileum and colon tissues were cut with scissors, the contents were removed and cleaned twice with PBS, after absorbing water with absorbent paper, they were weighed, placed in a 2 mL centrifuge tube and stored at −80° C.

[3] = Plasma stability, dog plasma; assay type: in vitro ADME
Procedure: as §1, §2, §3, §4, §5

[4] = Plasma stability, human plasma; assay type: in vitro ADME; conditions: human
Procedure: as §1, §2, §3, §4, §5

[5] = Plasma stability, mouse plasma; assay type: in vitro ADME
Procedure: as §1, §2, §3, §4, §5

[6] = test system: NCI-H358 cells (KRAS G12C mutant); experiment: Inhibition of NCI-H358 cell proliferation (CellTiter-Glo, 72 h); assay type: cell-based, human
Procedure: (§6) When NCI-H358 or Mia PaCa-2 cells were cultured to the appropriate fusion level, the NCI-H358 or Mia PaCa-2 cells were collected, and the cells were adjusted to the appropriate cell concentration using a complete medium, and the cell suspension was spread in a 96-well plate, 90 μL per well, and placed in a 37° C., 5% CO2 incubator overnight; and compound solutions of different concentrations were prepared using DMSO and culture medium; and a solvent control was set, the compound solution was added to a 96-well plate, 10 μL per well, at 37° C. in a 5% CO2 incubator for 72 hours; CellTiter-Glo solution was added thereto and the mixture was mixed well by shaking, incubated for 10 min in the dark, and read by BioTek Synergy H1 microplate reader.
(§7) The luminescence signal values were used to calculate the inhibition rate, the concentration and the inhibition rate were fitted to a nonlinear regression curve using Graphpad Prism software, then the IC50 value was obtained.

[7] = test system: Mia PaCa-2 cells (KRAS G12C mutant); experiment: Inhibition of Mia PaCa-2 cell proliferation (CellTiter-Glo, 72 h); assay type: cell-based, human
Procedure: as §6, §7

[8] = target: T1, human KRAS G12C protein (Homo sapiens, UniProt P01116, G12C); experiment: Thermal shift: melting temperature of KRAS G12C protein; assay type: binding; conditions: for Tm: KRAS G12C protein 5.37 μM with compound 10 μM, 1 hour; for ΔTm at 10 µM: Tm minus Tm of DMSO solvent control, compound 10 μM
T1 construct: purchased Beijing SinoBiological Co., Ltd. 12259-H07E2
Procedure: In this experiment, the thermal shift method was used to test the degree of change in the melting temperature (Tm) of the KRAS G12C protein before and after the binding of the compound, in order to characterize the ability of the compound to improve the stability of the KRAS G12C protein.
The specific experiment operation was as follows: • A solution containing […] (pH 7.5), 1 mM DTT, 5× SYPRO Orange and 150 mM NaCl was prepared as the experimental buffer, and a final concentration of 5.37 μM human KRAS G12C protein was added thereto. The reaction mixture was divided into 8 rows of PCR tubes, each 19.5 μL, and 0.5 μL of the test compound or DMSO were added respectively, so that the total reaction system was 20 μL, the final concentration of the compound was 10 μM, and 2.5% DMSO was set as the solvent control. After incubating at room temperature in the dark for 1 hour, the PCR tube was put into the PCR instrument, QuantStudio Software v1.3 was opened, and the melting temperature of KRAS G12C protein in different treatment groups was detected by melt curve function (heating from 25° C. to 95° C., 0.03° C./s).
The experimental data file of PCR instrument was imported into thermal shift software, and the melting temperature (Tm) of each treatment group was obtained, and the change value of melting temperature (ATm) was obtained by subtracting the Tm of DMSO solvent control group.

SMILES: C=CC(=O)N1CCN(c2nc(=O)n(-c3c(C)ccnc3C(C)C)c3nc(-c4c(O)cccc4F)c(F)cc23)[C@@H](C)C1 [AMG 510, reference compound]
Residual rate (%) 0 min ([1]; rat plasma, 37° C., 0 min): 100.00%
Residual rate (%) 15 min ([1]; rat plasma, 37° C., 15 min): 100.85%
Residual rate (%) 30 min ([1]; rat plasma, 37° C., 30 min): 93.03%
Residual rate (%) 60 min ([1]; rat plasma, 37° C., 60 min): 77.54%
Residual rate (%) 120 min ([1]; rat plasma, 37° C., 120 min): 56.77%
half-life at 0.5 μM ([1]; rat, plasma): 2.29 h
MRT ([2]; Plasma): 0.8 h
half-life ([2]; Plasma): 0.3 h
MRT ([2]; Tumor): 0.7 h
half-life ([2]; Tumor): 0.3 h
Kp ([2]; exposure in tumor to exposure in plasma, read-out: Ratio (T/P)): 0.42
Residual rate (%) 0 min ([3]; dog plasma, 37° C., 0 min): 100.00%
Residual rate (%) 15 min ([3]; dog plasma, 37° C., 15 min): 98.88%
Residual rate (%) 30 min ([3]; dog plasma, 37° C., 30 min): 101.14%
Residual rate (%) 60 min ([3]; dog plasma, 37° C., 60 min): 93.43%
Residual rate (%) 120 min ([3]; dog plasma, 37° C., 120 min): 91.92%
half-life at 0.5 μM ([3]; dog, plasma): 14.7 h
Residual rate (%) 0 min ([4]; 0 min, 0.5 μM): 100.00%
Residual rate (%) 15 min ([4]; 15 min, 0.5 μM): 93.77%
Residual rate (%) 30 min ([4]; 30 min, 0.5 μM): 85.72%
Residual rate (%) 60 min ([4]; 60 min, 0.5 μM): 82.51%
Residual rate (%) 120 min ([4]; 120 min, 0.5 μM): 64.44%
half-life at 0.5 μM ([4]; plasma): 3.31 h
Residual rate (%) 0 min ([5]; mouse plasma, 37° C., 0 min): 100.00%
Residual rate (%) 15 min ([5]; mouse plasma, 37° C., 15 min): 97.50%
Residual rate (%) 30 min ([5]; mouse plasma, 37° C., 30 min): 82.58%
Residual rate (%) 60 min ([5]; mouse plasma, 37° C., 60 min): 81.82%
Residual rate (%) 120 min ([5]; mouse plasma, 37° C., 120 min): 63.23%
half-life at 0.5 μM ([5]; mouse, plasma): 3.08 h

SMILES: C=CC(=O)N1CCN(c2nc(=O)n(-c3c(SC)ccnc3C(C)C)c3nc(-c4c(O)cccc4F)c(F)cc23)[C@@H](C)C1 [Embodiment 1-1, P-4-((S)-4-acryloyl-2-methylpiperazin-1-yl)-6-fluoro-7-(2-fluoro-6-hydroxyphenyl)-1-(2-isopropyl-4-(methylthio)pyridin-3-yl)pyrido[2,3-d]pyrimidin-2(1H)-one]
IC50 [6]: 28 nM
IC50 [7]: 55 nM

IC50 ([6]; Homo sapiens, NCI-H358, 72 h): 14 nM
Tm [8]: 61.5 °C
ΔTm at 10 µM [8]: 10.9 °C
IC50 ([7]; Homo sapiens, MIA PaCa-2, 72 h): 41 nM
SMILES: C=CC(=O)N1CCN(c2nc(=O)n(-c3c(SC)ccnc3C(C)C)c3nc(-c4c(O)cccc4F)c(Cl)cc23)[C@@H](C)C1 [Embodiment 3, 4-((S)-4-Acryloyl-2-methylpiperazin-1-yl)-6-chloro-7-(2-fluoro-6-hydroxyphenyl)-1-(2-isopropyl-4-(methylthio)pyridin-3-yl)pyrido[2,3-d]pyrimidin-2(1H)-one]

IC50 ([6]; Homo sapiens, NCI-H358, 72 h): 48 nM
Tm [8]: 61.2 °C
ΔTm at 10 µM [8]: 11.7 °C
IC50 ([7]; Homo sapiens, MIA PaCa-2, 72 h): 47 nM
SMILES: C=CC(=O)N1CCN(c2nc(=O)n(-c3c(SC)ccnc3C(C)C)c3nc(-c4c(F)cccc4SC)c(F)cc23)[C@@H](C)C1 [Embodiment 4, 4-((S)-4-Acryloyl-2-methylpiperazin-1-yl)-6-fluoro-7-(2-fluoro-6-(methylthio)phenyl)-1-(2-isopropyl-4-(methylthio)pyridin-3-yl)pyrido[2,3-d]pyrimidin-2(1H)-one]

IC50 ([6]; Homo sapiens, NCI-H358, 72 h): 79 nM
IC50 ([7]; Homo sapiens, MIA PaCa-2, 72 h): 68 nM
SMILES: C=CC(=O)N1CCN(c2nc(=O)n(-c3c(SC)ccnc3C(C)C)c3nc(-c4c(F)cccc4F)c(Cl)cc23)[C@@H](C)C1 [Embodiment 12, (S)-4-(4-acryloyl-2-methylpiperazin-1-yl)-7-(2,6-difluorophenyl)-6-chloro-1-(2-isopropyl-4-(methylthio)pyridin-3-yl)pyrido[2,3-d]pyrimidin-2(1H)-one]
